Measurements from patent publication US20150105252A1, “SUBSTITUTED PYRAZOLES AS HERBICIDES” (E I DU PONT DE NEMOURS AND COMPANY, priority 2013, published 2015).

Assays:
pigweed [1] = experiment: Test A postemergence; format: in vivo, Amaranthus retroflexus; settings: Postemergence, 1000 g ai/ha; visual rating after approx. 10 days, 0 to 100 scale (0 no effect, 100 complete control)
From the text: (§1) Seeds of plant species selected from barnyardgrass (Echinochloa crus-galli), kochia (Kochia scoparia), common ragweed (Ambrosia elation), Italian ryegrass (Lolium multiflorum), crabgrass, large (large crabgrass, Digitaria sanguinalis), foxtail, giant (giant foxtail, Setaria faberii), morningglory (Ipomoea spp.), pigweed (redroot pigweed, Amaranthus retroflexus), velvetleaf (Abutilon theophrasti), wheat (Triticum aestivum), and corn (Zea mays) were planted into a blend of loam soil and sand and treated preemergence with a directed soil spray using test chemicals formulated in a non-phytotoxic solvent mixture which included a surfactant.
(§2) At the same time, plants selected from these crop and weed species and also blackgrass (Alopecurus myosuroides), and galium (catchweed bedstraw, Galium aparine) were planted in pots containing the same blend of loam soil and sand and treated with postemergence applications of test chemicals formulated in the same manner. Plants ranged in height from 2 to 10 cm and were in the one- to two-leaf stage for the postemergence treatment. Treated plants and untreated controls were maintained in a greenhouse for approximately 10 days, after which time all treated plants were compared to untreated controls and visually evaluated for injury. Plant response ratings, summarized in Table A, are based on a 0 to 100 scale where 0 is no effect and 100 is complete control. A dash (-) response means no test result.

corn [2] = experiment: Test A preemergence; format: in vivo, Zea mays; settings: Preemergence, 1000 g ai/ha; 0 to 100 scale, 0 no effect, 100 complete control
How it was run: (§3)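 Visual injury ratings, 0 = no effect to 100 = complete control, taken about 10 days after treatment against untreated controls. Test chemicals, in a non-phytotoxic surfactant-containing solvent, were sprayed onto soil preemergence or onto one- to two-leaf plants (2–10 cm) postemergence, in loam–sand soil under greenhouse conditions.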

barnyardgrass [3] = experiment: Test A preemergence; format: in vivo, Echinochloa crus-galli; settings: Preemergence, 1000 g ai/ha; 0 to 100 scale, 0 no effect, 100 complete control
How it was run: as §3

morningglory [4] = experiment: Test A postemergence; format: in vivo, Ipomoea spp.; settings: Postemergence, 1000 g ai/ha; visual rating after approx. 10 days, 0 to 100 scale (0 no effect, 100 complete control)
How it was run: as §3

foxtail, giant [5] = experiment: Test A postemergence; format: in vivo, Setaria faberii; settings: Postemergence, 1000 g ai/ha; visual rating after approx. 10 days, 0 to 100 scale (0 no effect, 100 complete control)
From the text: as §1, §2

morningglory [6] = experiment: Test A preemergence; format: in vivo, Ipomoea spp.; settings: Preemergence, 1000 g ai/ha; 0 to 100 scale, 0 no effect, 100 complete control
From the text: as §1, §2

pigweed [7] = experiment: Test A preemergence; format: in vivo, Amaranthus retroflexus; settings: Preemergence, 1000 g ai/ha; 0 to 100 scale, 0 no effect, 100 complete control
From the text: as §1, §2

velvetleaf [8] = experiment: Test A postemergence; format: in vivo, Abutilon theophrasti; settings: Postemergence, 1000 g ai/ha; visual rating after approx. 10 days, 0 to 100 scale (0 no effect, 100 complete control)
From the text: as §1, §2

velvetleaf [9] = experiment: Test A preemergence; format: in vivo, Abutilon theophrasti; settings: Preemergence, 1000 g ai/ha; 0 to 100 scale, 0 no effect, 100 complete control
From the text: as §1, §2

foxtail, giant [10] = experiment: Test A preemergence; format: in vivo, Setaria faberii; settings: Preemergence, 1000 g ai/ha; 0 to 100 scale, 0 no effect, 100 complete control
From the text: as §1, §2

wheat [11] = experiment: Test A postemergence; format: in vivo, Triticum aestivum; settings: Postemergence, 1000 g ai/ha; visual rating after approx. 10 days, 0 to 100 scale (0 no effect, 100 complete control)
From the text: as §1, §2

corn [12] = experiment: Test A postemergence; format: in vivo, Zea mays; settings: Postemergence, 1000 g ai/ha; visual rating after approx. 10 days, 0 to 100 scale (0 no effect, 100 complete control)
How it was run: as §3

crabgrass, large [13] = experiment: Test A preemergence; format: in vivo, Digitaria sanguinalis; settings: Preemergence, 1000 g ai/ha; 0 to 100 scale, 0 no effect, 100 complete control
How it was run: as §3

crabgrass, large [14] = experiment: Test A postemergence; format: in vivo, Digitaria sanguinalis; settings: Postemergence, 1000 g ai/ha; visual rating after approx. 10 days, 0 to 100 scale (0 no effect, 100 complete control)
From the text: as §1, §2

wheat [15] = experiment: Test A preemergence; format: in vivo, Triticum aestivum
From the text: as §1, §2

barnyardgrass [16] = experiment: Test A postemergence; format: in vivo, Echinochloa crus-galli; settings: Postemergence, 1000 g ai/ha; visual rating after approx. 10 days, 0 to 100 scale (0 no effect, 100 complete control)
How it was run: as §3

[17] = Preemergence, 1000 g ai/ha, 0 to 100 scale, 0 no effect, 100 complete control
[18] = preemergence, 500 g ai/ha, visual injury after approx. 10 days, 0 to 100 scale (0 no effect, 100 complete control)

| SMILES | Pigweed plant response rating (pigweed [1]) | Corn plant response rating (corn [2]) | Barnyardgrass plant response rating (barnyardgrass [3]) | Morningglory plant response rating (morningglory [4]) | Foxtail, Giant plant response rating (foxtail, giant [5]) | Morningglory plant response rating (morningglory [6]) | Pigweed plant response rating (pigweed [7]) | Velvetleaf plant response rating (velvetleaf [8]) | Velvetleaf plant response rating (velvetleaf [9]) | Foxtail, Giant plant response rating (foxtail, giant [10]) | Wheat plant response rating (wheat [11]) | Corn plant response rating (corn [12]) | Crabgrass, Large plant response rating (crabgrass, large [13]) | Crabgrass, Large plant response rating (crabgrass, large [14]) | Wheat plant response rating (wheat [15]; [17]) | Wheat plant response rating (wheat [15]; [18]) | Barnyardgrass plant response rating (barnyardgrass [16]) |
| --- | --- | --- | --- | --- | --- | --- | --- | --- | --- | --- | --- | --- | --- | --- | --- | --- | --- |
| CCCCN(C)C(=O)c1cc(CC)n(Cc2cccc(OC(F)(F)F)c2)n1 [Compound 63] | 70 | 0 | 0 | 60 | 20 | 0 | 0 | 30 | 0 | 0 | 10 | 20 | 0 | 10 | 0 | 0 | 0 |
| CCc1cc(C(=O)NCCOC)nn1Cc1cccc(C(F)(F)F)c1 [Compound 48] | 10 | 0 | 10 | 50 | 20 | 20 | 0 | 10 | 0 | 10 | 0 | 30 | 10 | 10 | 0 |  | 10 |
| CCc1cc(C(=O)N(C)OC)nn1Cc1cccc(OC(F)(F)F)c1 [Compound 67] | 40 | 0 | 0 | 40 | 40 | 0 | 0 | 30 | 10 | 90 | 20 | 30 | 50 | 30 | 0 | 0 | 20 |
| C=CCNC(=O)c1cc(CC)n(Cc2cccc(C(F)(F)F)c2)n1 [Compound 44] | 50 | 20 | 10 | 70 | 50 | 20 | 10 | 40 | 0 | 50 | 20 | 20 | 50 | 20 | 0 |  | 10 |
